biological target: T1, human polymorphonuclear leukocyte elastase (Homo sapiens, UniProt P08246); assay: Inhibition of human polymorphonuclear leukocyte (granulocyte) elastase via hydrolysis of Boc-AAPAN or Boc-AAPVN; type: biochemical; details: pH 7.5, Table II, (per mole per second); read-out: kobs/I, second order rate constant of inactivation of the enzyme
T1 construct: Crude extract of human polymorphonuclear leukocytes (PMN) containing elastase activity; endogenous in cells; host or cells: human polymorphonuclear leukocytes (crude extract)
T1 sequence (P08246 30-247 limits assumed): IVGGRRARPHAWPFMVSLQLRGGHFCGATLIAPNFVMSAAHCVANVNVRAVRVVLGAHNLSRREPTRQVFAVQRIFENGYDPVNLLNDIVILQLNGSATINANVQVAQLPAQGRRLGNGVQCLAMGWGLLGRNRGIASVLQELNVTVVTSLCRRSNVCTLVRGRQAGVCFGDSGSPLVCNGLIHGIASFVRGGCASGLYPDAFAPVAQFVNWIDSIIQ

| Compound | kinact/KI [M⁻¹ s⁻¹] |
| --- | --- |
| CCC1(COC)C(=O)N(C(=O)NCc2ccc3c(c2)OCO3)C1Oc1ccc(C(=O)O)cc1 (stereo not shown) | 17000 |
| CCC1(C)C(=O)N(C(=O)NCc2cc(C)c(C(=O)O)c(C)c2)C1Oc1ccc(C(N)=O)cc1 (stereo not shown) | 30000 |
| CCC1(C)C(=O)N(C(=O)NCc2ccc(OC)c(OC)c2)C1Oc1ccc(C(=O)O)cc1 (stereo not shown) | 11300 |
| CCC1(C)C(=O)N(C(=O)NCc2cc(C)c(C(=O)O)c(C)c2)C1Oc1ccc(C(=O)O)cc1 (stereo not shown) | 5600 |
| CCC1C(=O)N(C(=O)Nc2ccc(C(=O)O)cc2)C1Oc1ccc(C(=O)O)cc1 (stereo not shown) | 13600 |
| C=CCC1C(=O)N(C(=O)NCc2ccccc2)C1Oc1ccc(C(=O)O)cc1 (stereo not shown) | 5400 |
| O=C(O)c1ccc(OC2N(C(=O)NCc3ccccc3)C(=O)C23CCCC3)cc1 (stereo not shown) | 1900 |

Other lines, results leading:

| kinact/KI [M⁻¹ s⁻¹] | Compound |
| --- | --- |
| 51000 | CCCC1(CC)C(=O)N(C(=O)NCc2ccc3ccccc3c2)C1Oc1ccc(C(=O)O)cc1 (stereo not shown) |
| 55000 | CCCC1(CC)C(=O)N(C(=O)NCc2cccc(C(F)(F)F)c2)C1Oc1ccc(C(=O)O)cc1 (stereo not shown) |
| 87000 | CCCC1(CC)C(=O)N(C(=O)NC(CC)c2ccccc2)C1Oc1ccc(C(=O)CCC(=O)O)cc1 (stereo not shown) |
| 50000 | CCC1(COC)C(=O)N(C(=O)NCc2ccc3ccccc3c2)C1Oc1ccc(C(=O)O)cc1 (stereo not shown) |
| 1900 | CCC1(COC)C(=O)N(C(=O)NCc2ccccc2)C1Oc1ccc(C(=O)O)cc1 (stereo not shown) |
| 44500 | CCC1(COC)C(=O)N(C(=O)NCc2ccc(-c3ccccc3)cc2)C1Oc1ccc(C(=O)O)cc1 (stereo not shown) |
| 75000 | CCCC(NC(=O)N1C(=O)C(CC)(COC)C1Oc1ccc(C(=O)O)cc1)c1ccccc1 (stereo not shown) |
| 12500 | CCC1(C)C(=O)N(C(=O)NCc2ccccc2)C1Oc1ccc(C(N)=O)cc1 (stereo not shown) |
| 2550 | CCC1(C)C(=O)N(C(=O)NCC(C)c2ccccc2)C1Oc1ccc(C(=O)O)cc1 (stereo not shown) |
| 15000 | CCC1(C)C(=O)N(C(=O)NC(C)c2ccccc2)C1Oc1ccc(C(=O)O)cc1 (stereo not shown) |
| 78800 | CCC(NC(=O)N1C(=O)C(C)(CC)C1Oc1ccc(C(=O)O)cc1)c1ccsc1 (stereo not shown) |
| 750000 | CCC(NC(=O)N1C(=O)C(C)(CC)C1Oc1ccc(C(=O)O)cc1)c1ccc2occc2c1 (stereo not shown) |
| 3280 | CCCC1(CC)C(=O)N(C(=O)NCc2ccccc2)C1Oc1ccc(C(=O)O)cc1 (stereo not shown) |
| 2500 | CCCC1(CCC)C(=O)N(C(=O)NCc2ccccc2)C1Oc1ccc(C(=O)O)cc1 (stereo not shown) |
| 87 | CCC1(Cc2ccccc2)C(=O)N(C(=O)NCc2ccccc2)C1Oc1ccc(C(=O)O)cc1 (stereo not shown) |
| 1970 | C=CCC1(CC)C(=O)N(C(=O)NCc2ccccc2)C1Oc1ccc(C(=O)O)cc1 (stereo not shown) |

same assay, conditions: pH 7.5, Table III, (per mole per second); read-out: kobs/I, second order rate constant of inactivation of the enzyme

| Compound | kinact/KI [M⁻¹ s⁻¹] |
| --- | --- |
| CCC1(CC)C(=O)N(C(=O)NCc2ccc(C)cc2)C1Oc1ccc(C(=O)O)c(O)c1 (stereo not shown) | 9250 |
| CCC1(CC)C(=O)N(C(=O)NCc2ccc(C)c(C)c2)C1Oc1ccc(C(O)C(=O)O)cc1 (stereo not shown) | 17600 |
| CCC1(CC)C(=O)N(C(=O)NCc2ccc(C)c(C)c2)C1Oc1ccc(C(=O)O)cc1 (stereo not shown) | 20600 |
| CCC1(CC)C(=O)N(C(=O)NCc2ccc3c(c2)CCCC3)C1Oc1ccc(C(=O)O)cc1 (stereo not shown) | 62900 |
| CCC1(CC)C(=O)N(C(=O)NCc2ccc(OC)c(C)c2)C1Oc1ccc(C(=O)O)cc1 (stereo not shown) | 13100 |
| CCC1(CC)C(=O)N(C(=O)NCc2ccc(-c3cccc(C(=O)O)c3)cc2)C1Oc1ccc(C(=O)O)cc1 (stereo not shown) | 14700 |
| CCC1(CC)C(=O)N(C(=O)NCc2ccc3cc(C(=O)O)ccc3c2)C1Oc1ccc(C(N)=O)cc1 (stereo not shown) | 40600 |
| CCC1(CC)C(=O)N(C(=O)NCc2ccccc2)C1Sc1nc[nH]n1 (stereo not shown) | 116 |
| CCC1(CC)C(=O)N(C(=O)NCc2ccccc2)C1Sc1nnnn1C (stereo not shown) | 3660 |

Second part, the molecule after the results:

| kinact/KI [M⁻¹ s⁻¹] | Compound |
| --- | --- |
| 28900 | CCC1(CC)C(=O)N(C(=O)NCc2ccc(-c3ccccc3)cc2)C1Oc1ccc(CC(=O)O)cc1 (stereo not shown) |
| 3350 | CCC1(CC)C(=O)N(C(=O)NCc2ccc(S(C)(=O)=O)cc2)C1Oc1ccc(C(=O)O)cc1 (stereo not shown) |
| 8030 | CCC1(CC)C(=O)N(C(=O)NCc2ccc(Cc3ccccc3)cc2)C1Oc1ccc(C(=O)O)cc1 (stereo not shown) |
| 12000 | CCC1(CC)C(=O)N(C(=O)NCc2ccc(OCc3ccccc3)cc2)C1Oc1ccc(C(=O)O)cc1 (stereo not shown) |

same assay, conditions: pH 7.5, Table IV, (per mole per second); read-out: kobs/I, second order rate constant of inactivation of the enzyme

| Compound | kinact/KI [M⁻¹ s⁻¹] |
| --- | --- |
| CCC1(C)C(=O)N(C(=O)N2CCc3ccccc3C2)C1Oc1ccc(C(=O)O)cc1 (stereo not shown) | 4380 |
| CCC1C(=O)N(C(=O)N(CC)Cc2ccccc2)C1Oc1ccc(C(=O)O)cc1 (stereo not shown) | 83000 |
| CCC1C(=O)N(C(=O)N(Cc2ccccc2)Cc2ccccc2)C1Oc1ccc(C(=O)O)cc1 (stereo not shown) | 5980 |
| CCOC(=O)c1ccc(COC(=O)N2C(=O)C(CC)C2Oc2ccc(C(=O)O)cc2)cc1 (stereo not shown) | 227000 |

Further lines, results first:

| kinact/KI [M⁻¹ s⁻¹] | Compound |
| --- | --- |
| 847000 | CCC[C@@H](NC(=O)N1C(=O)C(CC)(CC)C1Oc1ccc(CC(=O)O)cc1)c1ccc2occc2c1 (stereo partly shown) |
| 14300 | CCOC(=O)c1ccc(COC(=O)N2C(=O)C(CC)(CC)C2Oc2ccc(C(=O)O)cc2)cc1 (stereo not shown) |

same assay, conditions: pH 7.5, read-out: kobs/I, second order rate constant of inactivation of the enzyme

| Compound | kinact/KI [M⁻¹ s⁻¹] |
| --- | --- |
| CCCC1(C)C(=O)N(C(=O)NCc2ccccc2)C1Oc1ccc(C(=O)O)cc1 (stereo not shown) | 1900 |

Reference: US5229381A, “Substituted azetidinones as anti-inflammatory and antidegenerative agents” (Merck & Co., Inc., priority 1991, dated 1993)
